Results taken from patent publication US11377442B2, “Small molecule agonists and antagonists of NR2F6 activity” (ZANDER THERAPEUTICS, INC., priority 2016, dated 2022).

Target: T1, NR2F6 (Homo sapiens, UniProt P10588)
T1 construct: expressed in transfected cells; also transient transfection
T1 sequence (P10588 1-404): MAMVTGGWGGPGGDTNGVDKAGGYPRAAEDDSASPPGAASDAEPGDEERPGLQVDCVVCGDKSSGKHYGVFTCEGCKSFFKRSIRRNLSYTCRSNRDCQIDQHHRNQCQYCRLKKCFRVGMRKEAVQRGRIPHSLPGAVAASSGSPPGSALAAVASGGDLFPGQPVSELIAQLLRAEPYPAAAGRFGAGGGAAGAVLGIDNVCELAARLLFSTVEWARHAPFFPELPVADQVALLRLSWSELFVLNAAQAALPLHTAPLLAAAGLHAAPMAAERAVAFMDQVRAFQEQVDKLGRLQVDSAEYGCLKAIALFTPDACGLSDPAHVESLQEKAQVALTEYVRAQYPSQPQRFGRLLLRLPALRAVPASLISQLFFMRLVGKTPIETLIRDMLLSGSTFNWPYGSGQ
Assay: NR2F6 agonist screening, Firefly signal cmpd/DMSO
Type: cell-based
Details: for Firefly/Renilla (NR2F6 stable, clone F4): ratio Firefly/Renilla; for Firefly, NR2F6 stable (clone F4)/pGL4: ratio of Firefly in NR2F6 stable clone F4 to pGL4

[1] = C11 analogs follow set (Tables 2-10)

SMILES	Firefly, cmpd/DMSO repeat 1 [1]	Firefly, cmpd/DMSO repeat 2 [1]	other results
O=C(NCCc1ccccc1)c1ccc2oc(=O)c(S(=O)(=O)c3ccccc3)cc2c1 [Compound C111]	29.8	35.9	Firefly/Renilla (NR2F6 stable, clone F4) (Table 13): 1.1; Firefly, NR2F6 stable (clone F4)/pGL4 (Table 13): 8.7; Firefly, cmpd/DMSO repeat 1 (Table 13): 29.8; Firefly, cmpd/DMSO repeat 2 (Table 13): 35.9
Cc1ccc(S(=O)(=O)c2cc3cc(C(=O)NCCc4ccccc4)ccc3oc2=O)cc1 [Compound C112]	11.7	10.1	Firefly/Renilla (NR2F6 stable, clone F4) (Table 12): 2.0; Firefly, NR2F6 stable (clone F4)/pGL4 (Table 12): 4.1; Firefly, cmpd/DMSO repeat 1 (Table 12): 11.7; Firefly, cmpd/DMSO repeat 2 (Table 12): 10.1
O=C(NCCc1ccccc1)c1ccc2oc(=O)c(S(=O)(=O)c3ccc(F)cc3)cc2c1 [Compound C113]	5.8	7.0	–
O=C(NCCc1ccccc1)c1ccc2oc(=O)c(S(=O)(=O)c3ccc(Cl)cc3)cc2c1 [Compound C114]	4.5	4.7	–
O=C(NCc1ccccc1)c1ccc2oc(=O)c(S(=O)(=O)c3ccccc3)cc2c1 [Compound C115]	6.8	21.9	–
Cc1ccc(CNC(=O)c2ccc3oc(=O)c(S(=O)(=O)c4ccc(Cl)cc4)cc3c2)cc1 [Compound C116]	8.6	9.0	–
COc1ccc(CNC(=O)c2ccc3oc(=O)c(S(=O)(=O)c4ccc(F)cc4)cc3c2)cc1 [Compound C117]	17.3	24.1	–
O=C(NCc1ccc(F)cc1)c1ccc2oc(=O)c(S(=O)(=O)c3ccc(F)cc3)cc2c1 [Compound C118]	13.5	17.1	Firefly/Renilla (NR2F6 stable, clone F4) (Table 13): 1.1; Firefly, NR2F6 stable (clone F4)/pGL4 (Table 13): 5.9; Firefly, cmpd/DMSO repeat 1 (Table 13): 13.5; Firefly, cmpd/DMSO repeat 2 (Table 13): 17.1
O=C(NCc1ccc(F)cc1)c1ccc2oc(=O)c(S(=O)(=O)c3ccc(Cl)cc3)cc2c1 [Compound C119]	18.4	16.2	–
O=C(Nc1ccccc1C(F)(F)F)c1ccc2oc(=O)c(S(=O)(=O)c3ccc(F)cc3)cc2c1 [Compound C120]	4.5	6.3	–
COc1ccc(NC(=O)c2ccc3oc(=O)c(S(=O)(=O)c4ccc(C)cc4)cc3c2)cc1OC [Compound C121]	9.0	21.5	–
COc1ccc(NC(=O)c2ccc3oc(=O)c(S(=O)(=O)c4ccc(Cl)cc4)cc3c2)cc1OC [Compound C122]	4.4	5.7	–
COc1ccccc1NC(=O)c1ccc2oc(=O)c(S(=O)(=O)c3ccccc3)cc2c1 [Compound C123]	17.7	16.8	–
COc1ccccc1NC(=O)c1ccc2oc(=O)c(S(=O)(=O)c3ccc(F)cc3)cc2c1 [Compound C124]	25.5	29.8	–
COc1ccccc1NC(=O)c1ccc2oc(=O)c(S(=O)(=O)c3ccc(Cl)cc3)cc2c1 [Compound C125]	28.0	24.5	–
COc1cccc(NC(=O)c2ccc3oc(=O)c(S(=O)(=O)c4ccc(C)cc4)cc3c2)c1 [Compound C126]	45.1	44.8	Firefly/Renilla (NR2F6 stable, clone F4) (Table 13): 1.0; Firefly, NR2F6 stable (clone F4)/pGL4 (Table 13): 9.9; Firefly, cmpd/DMSO repeat 1 (Table 13): 45.1; Firefly, cmpd/DMSO repeat 2 (Table 13): 44.8
COc1cccc(NC(=O)c2ccc3oc(=O)c(S(=O)(=O)c4ccc(F)cc4)cc3c2)c1 [Compound C127]	36.7	56.2	Firefly/Renilla (NR2F6 stable, clone F4) (Table 13): 1.1; Firefly, NR2F6 stable (clone F4)/pGL4 (Table 13): 5.7; Firefly, cmpd/DMSO repeat 1 (Table 13): 36.7; Firefly, cmpd/DMSO repeat 2 (Table 13): 56.2
O=C(Nc1cccc(Cl)c1)c1ccc2oc(=O)c(S(=O)(=O)c3ccc(F)cc3)cc2c1 [Compound C128]	1.7	5.2	–
O=C(Nc1ccc(Cl)cc1)c1ccc2oc(=O)c(S(=O)(=O)c3ccc(F)cc3)cc2c1 [Compound C129]	0.9	1.2	–
COc1cc(NC(=O)c2ccc3oc(=O)c(S(=O)(=O)c4ccccc4)cc3c2)cc(OC)c1 [Compound C130]	2.3	3.4	–
COc1cc(NC(=O)c2ccc3oc(=O)c(S(=O)(=O)c4ccc(C)cc4)cc3c2)cc(OC)c1 [Compound C131]	9.5	15.3	–

SMILES	Firefly, cmpd/DMSO repeat 1 [1]	Firefly, cmpd/DMSO repeat 2 [1]	other results
COc1cc(NC(=O)c2ccc3oc(=O)c(S(=O)(=O)c4ccc(F)cc4)cc3c2)cc(OC)c1 [Compound C132]	1.4	1.4	–
COc1cc(NC(=O)c2ccc3oc(=O)c(S(=O)(=O)c4ccc(Cl)cc4)cc3c2)cc(OC)c1 [Compound C133]	2.1	4.3	–
Cc1ccc(S(=O)(=O)c2cc3cc(C(=O)Nc4cccc(C)c4C)ccc3oc2=O)cc1 [Compound C134]	38.1	31.9	Firefly/Renilla (NR2F6 stable, clone F4) (Table 12): 1.8; Firefly, NR2F6 stable (clone F4)/pGL4 (Table 12): 7.7; Firefly, cmpd/DMSO repeat 1 (Table 12): 38.1; Firefly, cmpd/DMSO repeat 2 (Table 12): 31.9
Cc1cccc(NC(=O)c2ccc3oc(=O)c(S(=O)(=O)c4ccc(F)cc4)cc3c2)c1C [Compound C135]	5.6	4.9	–
Cc1cccc(NC(=O)c2ccc3oc(=O)c(S(=O)(=O)c4ccc(Cl)cc4)cc3c2)c1C [Compound C136]	22.1	25.8	Firefly/Renilla (NR2F6 stable, clone F4) (Table 12): 1.7; Firefly, NR2F6 stable (clone F4)/pGL4 (Table 12): 8.1; Firefly, cmpd/DMSO repeat 1 (Table 12): 22.1; Firefly, cmpd/DMSO repeat 2 (Table 12): 25.8
O=c1oc2ccc([N+](=O)[O-])cc2cc1S(=O)(=O)c1ccc(F)cc1 [Compound C137]	22.6	23.4	Firefly/Renilla (NR2F6 stable, clone F4) (Table 13): 1.4; Firefly, NR2F6 stable (clone F4)/pGL4 (Table 13): 8.4; Firefly, cmpd/DMSO repeat 1 (Table 13): 22.6; Firefly, cmpd/DMSO repeat 2 (Table 13): 23.4
O=c1oc2ccc([N+](=O)[O-])cc2cc1S(=O)(=O)c1ccc(Br)cc1 [Compound C138]	10.0	16.6	–
CC(C)(C)c1ccc(S(=O)(=O)c2cc3cc([N+](=O)[O-])ccc3oc2=O)cc1 [Compound C139]	6.6	6.4	–
CC(C)c1ccc(S(=O)(=O)c2cc3cc(Cl)ccc3oc2=O)cc1 [Compound C140]	12.8	12.0	–
Cc1ccc(S(=O)(=O)c2cc3cc(Cl)ccc3oc2=O)cc1C [Compound C143]	15.2	14.5	–
COc1ccc2oc(=O)c(S(=O)(=O)c3ccc(C)c(C)c3)cc2c1 [Compound C144]	0.9	0.8	–
O=c1oc2ccc(Cl)cc2cc1S(=O)(=O)c1ccc(Cl)cc1 [Compound C147]	2.6	2.9	–
O=c1oc2ccc(Cl)cc2cc1S(=O)(=O)c1ccc(Cl)c(Cl)c1 [Compound C151]	3.6	5.5	–
O=c1oc2ccc([N+](=O)[O-])cc2cc1S(=O)(=O)c1ccc(Cl)c(Cl)c1 [Compound C153]	6.5	9.0	–
COc1ccc(S(=O)(=O)c2cc3cc(Br)ccc3oc2=O)cc1OC [Compound C154]	35.4	35.4	Firefly/Renilla (NR2F6 stable, clone F4) (Table 13): 1.6; Firefly, NR2F6 stable (clone F4)/pGL4 (Table 13): 9.1; Firefly, cmpd/DMSO repeat 1 (Table 13): 35.4; Firefly, cmpd/DMSO repeat 2 (Table 13): 35.4
COc1ccc(S(=O)(=O)c2cc3cc(Cl)ccc3oc2=O)cc1OC [Compound C155]	37.3	33.3	Firefly/Renilla (NR2F6 stable, clone F4) (Table 12): 2.0; Firefly, NR2F6 stable (clone F4)/pGL4 (Table 12): 10.9; Firefly, cmpd/DMSO repeat 1 (Table 12): 37.3; Firefly, cmpd/DMSO repeat 2 (Table 12): 33.3
COc1ccc2oc(=O)c(S(=O)(=O)c3ccc(OC)c(OC)c3)cc2c1 [Compound C156]	1.0	1.0	–
COc1ccc2oc(=O)c(S(=O)(=O)c3ccc(F)c(Cl)c3)cc2c1 [Compound C158]	1.5	1.2	–
O=C(Nc1ccc(F)cc1)c1ccc2oc(=O)c(S(=O)(=O)c3ccc(F)cc3)cc2c1 [Compound C159]	0.9	1.2	–
Cc1ccccc1NC(=O)c1ccc2oc(=O)c(S(=O)(=O)c3ccc(F)cc3)cc2c1 [Compound C160]	22.9	20.2	Firefly/Renilla (NR2F6 stable, clone F4) (Table 12): 2.4; Firefly, NR2F6 stable (clone F4)/pGL4 (Table 12): 7.2; Firefly, cmpd/DMSO repeat 1 (Table 12): 22.9; Firefly, cmpd/DMSO repeat 2 (Table 12): 20.2
